{"source": "patent EP1527784B1", "about": "“Method for extracting antineoplastic components from Bupleurum scorzonerifolium and composition comprising lactones” (Buddhist Tzu Chi General Hospital, priority 2003, dated 2005)", "key": {"A549-T12": {"system": "A549-T12", "experiment": "Annexin V-FLOUS / PI flow cytometry for apoptosis, Taxol-resistant cells", "format": "cell-based", "conditions": "Homo sapiens, 48 hours, untreated group 6.8%, read-out: ratio of apoptotic tumor cell", "description": "(§1) The following embodiments are described with Taxol-resistant tumor cell A549-T12 (passage cultured from lung cancer cell line A549 cells with low concentration of taxol) as an example to test the effect of BS-A and its pure compounds (these represent chaihulactone and chaihulactone analogues). Flow cytometry, cytotoxicity, and biomolecular examinations are adopted to estimate the mechanism of Bupleurum scorzonerifolium extracts on Taxol-resistant tumor cells.\nFIGs. […] Among these figures, X-axis represents the fluorescent brightness of tumor cells with antibody Annexin V-FLOUS whereas Y-axis represents the fluorescent brightness of tumor cell with antibody PI. […] This indicates isochaihulactone has better induction for apoptosis of Taxol-resistant tumor cell line than other chaihulactone analogues."}, "tumor cells": {"system": "tumor cells", "conditions": "in two years; initial treatment stage; cited from earlier work"}, "A549-T12 cells": {"system": "A549-T12 cells", "experiment": "MTT cytotoxicity assay on Taxol-resistant lung cancer cells", "format": "cell-based", "conditions": "Taxol-resistant human lung cancer cell line A549-T12; read-out: concentration that causes 50% growth inhibition (IC50)", "description": "On the other hand, when the BS-AE containing γ-butyrolactone heterocyclic compounds, such as isochaihulactone and BS-AE are applied on Taxol-resistant tumor cell line, for example, human lung cancer cell line A549-T12, they also show anti-tumor effects on the resistant tumor cells. […] Furthermore, the tumor-suppressing effects of those Bupleurum scorzonerifolium extracts after isolated by the extraction method of this invention are more prominent.\nas §1\nFurthermore, a lower dose (2-4 µg/ml) of isochaihulactone is required to induce apoptosis on A549-T12 cells than that of A549 cells (8-10 µg/ml)."}, "p53": {"system": "p53", "experiment": "Western blotting of tumor suppressor p53", "format": "cell-based, human", "conditions": "A549 cells, FIG. 5, 1 day or 3 days"}, "β-tubulin": {"system": "β-tubulin", "experiment": "Immunoblot of soluble and particular (polymerized) β-tubulin in A549 cells", "format": "cell-based, human", "conditions": "FIG. 7"}, "A549 cells [1]": {"system": "A549 cells", "experiment": "Cell cycle analysis by flow cytometry (PI)", "format": "cell-based, human", "conditions": "FIG. 4; concentration not given", "protocol": "Furthermore, flow cytometry is employed to observe the changes in cell cycle before and after the addition of different extracts from Bupleurum scorzonerifolium to A549 cells. In figures 2A through to 2D, X-axis represents chromosome numbers (2N, 4N, etc.) of tumor cells in contact with the antibody, Y-axis represents the fluorescent brightness of Propidium Iodide (PI). It is clearly noted that before treatment lung cancer cell line A549 is mainly at stage of G0/G1, but when 60 µg/ml of BS-AE and 600 µg/ml of BS-ME are added to the tumor cells, the tumor cells are arrested at G2/M stage. This is particularly the case for BS-ME."}, "p21": {"system": "p21", "experiment": "Western blotting of tumor suppressor p21", "format": "cell-based, human", "conditions": "A549 cells, FIG. 5, 1 day or 3 days"}, "A549 cells [2]": {"system": "A549 cells", "experiment": "Annexin V-FLOUS / PI flow cytometry for apoptosis", "format": "cell-based", "conditions": "Homo sapiens, 48 hours, untreated group 3.8%, read-out: proportion of cell death (apoptosis)", "protocol": "In A549 cells, 20 µM of Isochaihulactone and 60 µg/ml of BS-AE are added to A549 cell line. After 48 hours of treatment, flow cytometry is utilized to detect the staining results between Annexin V-FLOUS and PI. In FIGs. 3A through to 3C, X-axis represents the fluorescent brightness of tumor cells with antibody Annexin V-FLOUS, and Y-axis represents the fluorescent brightness of tumor cells with antibody PI. From the diagrams, it was shown that the untreated group has only 3.8% of apoptosis, whereas A549 cells treated with Isochaihulactone and BS-AE has much higher proportion of cell death (about 30-40%)."}, "[3]": {"system": "human hepatoma cell line J5, ovarian cancer cell line OVCAR-3, human malignant glioblastoma cell line DBTRG-05MD, lung cancer cell line A549 and colorectal …", "experiment": "MTT cytotoxicity screening of extracts and components on a tumor cell line panel", "format": "cell-based", "conditions": "MTT assay / drug screening; Table 1 cited but not given", "protocol": "Each of the aforementioned heterocyclic compounds from each extract as well as the acetone crude extracts of Bupleurum scorzonerifolium are assayed to measure the antineoplastic activity. It was shown that majority of antineoplastic components of Bupleurum scorzonerifolium are retained in the BS-AE and BS-ME. The BS-HE and BS-CE hardly have any tumor-suppressing effects. Besides, the extracts can be further purified using chromatography method (e.g. low pressure liquid chromatography or high performance liquid chromatography (HPLC)), such that fractions are collected separately after each elution to obtain the pure compounds mentioned above.\nMoreover, from chemical analysis of the main representative molecular structure of the eighth component, it was observed that the compound shares a common feature shown in formula (I) as having a γ-butyrolactone-centred heterocyclic compound with Z configuration or E configuration at carbon 2(5), or pharmacologically compatible salts, esters, ketones or their derivatives. [drawing 19] where the heterocyclic compound may have a 3R or 3S configuration, X can be N, O, S, or Se, andA, B can be selected from the following substituents: [drawing 20] where R1, R2, R3, R4, R5 can be selected from hydrogen atom, a halogen atom, a hydroxyl group, a sulfoxyl group, an amino group, a methoxyl group, and a nitro group. […]"}}}
{"compound": "COc1ccc(/C=C2\\C(=O)OC[C@@H]2Cc2ccc3c(c2)OCO3)cc1OC", "note": "[BS-15, Isokaerophyllin]", "values": [{"measurement": "cytotoxicity at 8 µg/mL", "setting": "A549-T12", "result": 23.1, "unit": "%"}]}
{"compound": "CC(=O)O[C@H]1C(=O)[C@@]2(C)[C@H]([C@H](OC(=O)c3ccccc3)[C@]3(O)C[C@H](OC(=O)[C@H](O)[C@@H](NC(=O)c4ccccc4)c4ccccc4)C(C)=C1C3(C)C)[C@]1(OC(C)=O)CO[C@@H]1C[C@@H]2O", "note": "[Taxol, Paclitaxel]", "values": [{"measurement": "improvement of survival rate of the patient", "setting": "tumor cells", "result": "about 15%"}]}
{"compound": "COc1cc(/C=C2\\C(=O)OC[C@@H]2Cc2ccc3c(c2)OCO3)cc(OC)c1OC", "note": "[isochaihulactone, Isochaihulactone]", "values": [{"measurement": "IC50", "setting": "A549-T12 cells", "result": "2 to 4", "unit": "µg/mL"}, {"measurement": "expression level of tumor suppressor p53", "setting": "p53", "result": "increase in expression level"}, {"measurement": "particular form (polymerized β-microtubule)", "setting": "β-tubulin", "result": "increases"}, {"measurement": "soluble form (non-polymerized β-microtubule)", "setting": "β-tubulin", "result": "significantly diminishes"}, {"measurement": "cell cycle stage of tumor cells", "setting": "A549 cells [1]", "result": "arrest at the stage G2/M"}, {"measurement": "cytotoxicity at 8 µg/mL", "setting": "A549-T12", "result": 30.6, "unit": "%"}, {"measurement": "expression level of tumor suppressor p21", "setting": "p21", "result": "increase in expression level"}, {"measurement": "cytotoxicity at 20 µM", "setting": "A549 cells [2]", "result": "30 to 40", "unit": "%"}, {"measurement": "antineoplastic effect (comparison among extracts and components)", "setting": "[3]", "result": "most prominent anti-tumor effects"}]}
